According to patent US8969392B2, “Pesticide composition comprising propamocarb-fosetylate and an insecticidally active substance” (Bayer Cropscience AG, priority 2006, dated 2015):

Assays:
Plutella xylostella = Plutella xylostella test (cabbage leaf dip, larvae, mortality); format: in vivo; details: mortality after 6 days, cabbage leaves dipped
Description: (§1) To produce a suitable preparation of active compound, 1 part by weight of active compound is mixed with the stated amount of solvent and emulsifier, and the concentrate is diluted with emulsifier-containing water to the desired concentration.
Cabbage leaves (Brassica oleracea) are treated by being dipped into the preparation of the active compound at the desired concentration and are infested with larvae of the diamond black moth Plutella xylostella as long as the leaves are still moist.
After a period of time of 6 days, the mortality is determined. 100% means that all the caterpillars have been killed; 0% means that none of the caterpillars have been killed.

Myzus persicae = Myzus persicae test (cabbage leaf dip, mortality); format: in vivo; details: mortality after 6 days, cabbage leaves dipped
Description: as §1
Cabbage leaves (Brassica oleracea) which are heavily infested by the green peach aphid (Myzus persicae) are treated by being dipped into the preparation of the active compound at the desired concentration.
After a period of time of 6 days, the mortality is determined. 100% means that all the […] have been killed; 0% means that none of the […] have been killed.

Plasmopara viticola = details: straight use of the compound; WO-99/42468; cited from earlier work
Phaedon cochleariae = Phaedon cochleariae test (cabbage leaf dip, larvae, mortality); format: in vivo; details: mortality after 4 days, cabbage leaves dipped
Description: as §1
Cabbage leaves (Brassica oleracea) are treated by being dipped into the preparation of the active compound at the desired concentration and are infested with larvae of the mustard beetle Phaedon cochleariae as long as the leaves are still moist.
After a period of time of 4 days, the mortality is determined. 100% means that all the […] have been killed; 0% means that none of the […] have been killed.

N#C/N=C1\SCCN1Cc1ccc(Cl)nc1 [thiacloprid]
Efficacy (%) (Plutella xylostella; rate of application 20 ppm): 20%

CN/C(=N\[N+](=O)[O-])NCc1cnc(Cl)s1 [Clothianidin, clothianidin]
Efficacy (%) (Myzus persicae; rate of application 0.8 ppm): 75%

CCCOC(=O)NCCCN(C)C.CCO[PH](=O)O [Propamocarb-fosetylate, dimethyl-[3-(propoxycarbonylamino)propyl]ammonium-O-ethylphosphonate]
fungicide activity to control Plasmopara viticola (Plasmopara viticola): Some fungicide activity | Efficacy (%) (Phaedon cochleariae; rate of application 200 ppm): 5% | Efficacy (%) (Plutella xylostella; rate of application 200 ppm): 0% | Efficacy (%) (Myzus persicae; rate of application 200 ppm): 0%

O=[N+]([O-])NC1=NCCN1Cc1ccc(Cl)nc1 [Imidacloprid, imidacloprid]
Efficacy (%) (Phaedon cochleariae; rate of application 20 ppm): 80%
